{
  "source": "patent US20260224588A1",
  "about": "“BENZODIAZEPINONE-DERIVED INHIBITORS OF EGFR AND HER2” (The Research Foundation for the State University of New York, priority 2023, published 2026)",
  "type_in_all_cases": "binding",
  "key": {"[1]": {"target": "T1, ABL1(M351T)-phosphorylated (Homo sapiens, UniProt P00519, M351T)", "T1 construct": "purchased Eurofins DiscoverX Corporation", "assay": "KINOMEscan", "details": "1 μM of compound 4; read-out: POC"}, "[2]": {"target": "AURKA (Homo sapiens, UniProt O14965)", "assay": "KINOMEscan", "details": "1 μM of compound 4; read-out: POC"}, "[3]": {"target": "BRSK1 (Homo sapiens, UniProt Q8TDC3)", "assay": "KINOMEscan", "details": "1 μM of compound 4; read-out: POC"}, "[4]": {"target": "BTK (Homo sapiens, UniProt Q06187)", "assay": "KINOMEscan", "details": "1 μM of compound 4; read-out: POC"}, "[5]": {"target": "CAMK1B (Homo sapiens, UniProt Q6P2M8)", "assay": "KINOMEscan", "details": "1 μM of compound 4; read-out: POC"}, "[6]": {"target": "CAMK1G (Homo sapiens, UniProt Q96NX5)", "assay": "KINOMEscan", "details": "1 μM of compound 4; read-out: POC"}, "[7]": {"target": "CAMK2A (Homo sapiens, UniProt Q9UQM7)", "sequence (Q9UQM7 whole entry)": "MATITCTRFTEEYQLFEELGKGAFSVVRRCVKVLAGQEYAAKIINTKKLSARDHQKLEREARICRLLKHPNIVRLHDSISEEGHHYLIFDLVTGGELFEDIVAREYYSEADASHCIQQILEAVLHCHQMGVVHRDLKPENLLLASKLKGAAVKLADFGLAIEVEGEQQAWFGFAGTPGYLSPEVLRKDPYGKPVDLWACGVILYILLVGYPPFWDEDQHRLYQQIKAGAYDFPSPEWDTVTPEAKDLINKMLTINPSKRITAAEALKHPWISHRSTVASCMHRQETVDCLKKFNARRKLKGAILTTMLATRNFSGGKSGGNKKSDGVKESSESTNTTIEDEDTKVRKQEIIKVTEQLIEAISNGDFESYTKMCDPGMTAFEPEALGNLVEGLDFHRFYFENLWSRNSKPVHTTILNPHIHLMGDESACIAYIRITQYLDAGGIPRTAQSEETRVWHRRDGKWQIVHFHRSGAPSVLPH", "assay": "KINOMEscan", "details": "1 μM of compound 4; read-out: POC"}, "[8]": {"target": "CIT (Homo sapiens, UniProt O14578)", "assay": "KINOMEscan", "details": "1 μM of compound 4; read-out: POC"}, "[9]": {"target": "CSK (Homo sapiens, UniProt P41240)", "assay": "KINOMEscan", "details": "1 μM of compound 4; read-out: POC"}, "[10]": {"target": "CSNK1E (Homo sapiens, UniProt P49674)", "assay": "KINOMEscan", "details": "1 μM of compound 4; read-out: POC"}, "[11]": {"target": "CSNK2A1 (Homo sapiens, UniProt P68400)", "assay": "KINOMEscan", "details": "1 μM of compound 4; read-out: POC"}, "[12]": {"target": "DMPK2 (Homo sapiens, UniProt Q6DT37)", "assay": "KINOMEscan", "details": "1 μM of compound 4; read-out: POC"}, "[13]": {"target": "T2, ERK5 (Homo sapiens, UniProt Q13164)", "T2 construct": "purchased Eurofins DiscoverX Corporation", "assay": "KINOMEscan", "details": "1 μM of compound 4; read-out: POC"}, "[14]": {"target": "INSR (Homo sapiens, UniProt P06213)", "assay": "KINOMEscan", "details": "1 μM of compound 4; read-out: POC"}, "[15]": {"target": "LTK (Homo sapiens, UniProt P29376)", "assay": "KINOMEscan", "details": "1 μM of compound 4; read-out: POC"}, "[16]": {"target": "LZK (Homo sapiens, UniProt O43283)", "assay": "KINOMEscan", "details": "1 μM of compound 4; read-out: POC"}, "[17]": {"target": "MAP3K15 (Homo sapiens, UniProt Q6ZN16)", "assay": "KINOMEscan", "details": "1 μM of compound 4; read-out: POC"}, "[18]": {"target": "MARK3 (Homo sapiens, UniProt P27448)", "assay": "KINOMEscan", "details": "1 μM of compound 4; read-out: POC"}, "[19]": {"target": "MINK (Homo sapiens, UniProt Q8N4C8)", "assay": "KINOMEscan", "details": "1 μM of compound 4; read-out: POC"}, "[20]": {"target": "MTOR (Homo sapiens, UniProt P42345)", "assay": "KINOMEscan", "details": "1 μM of compound 4; read-out: POC"}, "[21]": {"target": "MYLK2 (Homo sapiens, UniProt Q9H1R3)", "assay": "KINOMEscan", "details": "1 μM of compound 4; read-out: POC"}, "[22]": {"target": "NEK2 (Homo sapiens, UniProt P51955)", "assay": "KINOMEscan", "details": "1 μM of compound 4; read-out: POC"}, "[23]": {"target": "T3, NIK (Homo sapiens, UniProt Q99558)", "T3 construct": "purchased Eurofins DiscoverX Corporation (KINOMEscan)", "assay": "KINOMEscan", "details": "1 μM of compound 4; read-out: POC"}, "[24]": {"target": "T4, PDGFRA (Homo sapiens, UniProt P16234)", "T4 construct": "purchased Eurofins DiscoverX Corporation (KINOMEscan)", "assay": "KINOMEscan", "details": "1 μM of compound 4; read-out: POC"}, "[25]": {"target": "PIK3CA(E545A) (Homo sapiens, UniProt P42336, E545A)", "sequence (P42336 whole entry E545A)": "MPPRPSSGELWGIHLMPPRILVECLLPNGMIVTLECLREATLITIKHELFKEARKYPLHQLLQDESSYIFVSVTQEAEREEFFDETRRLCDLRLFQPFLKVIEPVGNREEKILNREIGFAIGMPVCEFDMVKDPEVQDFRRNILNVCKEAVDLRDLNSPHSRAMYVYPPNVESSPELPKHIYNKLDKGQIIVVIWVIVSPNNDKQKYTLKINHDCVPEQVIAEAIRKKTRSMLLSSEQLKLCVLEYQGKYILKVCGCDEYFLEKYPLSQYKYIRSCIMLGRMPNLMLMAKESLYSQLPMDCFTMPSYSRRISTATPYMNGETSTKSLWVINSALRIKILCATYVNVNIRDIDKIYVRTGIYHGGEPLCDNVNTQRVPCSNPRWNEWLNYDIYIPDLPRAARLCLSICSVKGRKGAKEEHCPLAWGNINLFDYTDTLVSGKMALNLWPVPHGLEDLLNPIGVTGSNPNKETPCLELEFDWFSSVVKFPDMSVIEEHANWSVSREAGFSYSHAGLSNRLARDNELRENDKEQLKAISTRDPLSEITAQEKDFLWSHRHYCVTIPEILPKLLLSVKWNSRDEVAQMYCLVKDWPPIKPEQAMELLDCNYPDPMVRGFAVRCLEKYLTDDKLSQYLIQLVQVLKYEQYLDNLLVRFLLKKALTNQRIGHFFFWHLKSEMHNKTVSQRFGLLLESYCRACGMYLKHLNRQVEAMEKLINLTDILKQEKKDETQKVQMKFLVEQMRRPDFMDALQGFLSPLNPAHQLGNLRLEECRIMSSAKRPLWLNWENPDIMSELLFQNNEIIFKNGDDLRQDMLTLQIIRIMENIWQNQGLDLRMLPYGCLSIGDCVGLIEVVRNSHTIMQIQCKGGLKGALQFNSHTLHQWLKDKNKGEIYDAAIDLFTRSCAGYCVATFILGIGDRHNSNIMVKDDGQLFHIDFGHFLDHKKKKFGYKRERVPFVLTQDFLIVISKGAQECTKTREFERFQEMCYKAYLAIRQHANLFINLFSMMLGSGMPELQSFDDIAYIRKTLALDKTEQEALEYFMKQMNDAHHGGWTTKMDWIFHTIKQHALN", "assay": "KINOMEscan", "details": "1 μM of compound 4; read-out: POC"}, "[26]": {"target": "PRKCI (Homo sapiens, UniProt P41743)", "assay": "KINOMEscan", "details": "1 μM of compound 4; read-out: POC"}, "[27]": {"target": "PRKD2 (Homo sapiens, UniProt Q9BZL6)", "sequence (Q9BZL6 whole entry)": "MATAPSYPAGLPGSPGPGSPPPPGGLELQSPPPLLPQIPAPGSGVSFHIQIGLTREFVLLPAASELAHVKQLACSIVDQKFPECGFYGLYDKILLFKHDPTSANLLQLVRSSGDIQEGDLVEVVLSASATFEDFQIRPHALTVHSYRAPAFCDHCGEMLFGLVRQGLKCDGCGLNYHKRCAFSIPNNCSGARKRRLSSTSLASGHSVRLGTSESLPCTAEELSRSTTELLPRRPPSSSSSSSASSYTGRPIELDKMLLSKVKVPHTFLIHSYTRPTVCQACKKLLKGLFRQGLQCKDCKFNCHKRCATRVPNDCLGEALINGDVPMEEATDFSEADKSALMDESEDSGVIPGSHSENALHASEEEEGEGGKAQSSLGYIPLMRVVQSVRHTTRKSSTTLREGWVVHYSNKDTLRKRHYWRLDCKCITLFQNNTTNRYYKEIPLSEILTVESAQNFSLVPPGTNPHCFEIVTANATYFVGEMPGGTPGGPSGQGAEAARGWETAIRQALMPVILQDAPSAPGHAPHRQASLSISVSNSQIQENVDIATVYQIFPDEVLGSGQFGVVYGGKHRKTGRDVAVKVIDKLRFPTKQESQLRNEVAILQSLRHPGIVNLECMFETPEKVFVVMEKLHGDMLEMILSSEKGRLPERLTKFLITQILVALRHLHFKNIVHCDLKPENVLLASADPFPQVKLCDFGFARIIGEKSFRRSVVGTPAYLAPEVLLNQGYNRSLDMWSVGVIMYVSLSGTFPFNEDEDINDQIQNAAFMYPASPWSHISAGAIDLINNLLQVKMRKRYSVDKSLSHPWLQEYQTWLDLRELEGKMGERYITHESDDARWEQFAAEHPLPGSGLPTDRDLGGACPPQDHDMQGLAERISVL", "assay": "KINOMEscan", "details": "1 μM of compound 4; read-out: POC"}, "[28]": {"target": "T5, RET (Homo sapiens, UniProt P07949)", "T5 construct": "purchased Eurofins DiscoverX Corporation (KINOMEscan screening service)", "assay": "KINOMEscan", "details": "1 μM of compound 4; read-out: POC"}, "[29]": {"target": "T6, RET(M918T) (Homo sapiens, UniProt P07949, M918T)", "T6 construct": "purchased Eurofins DiscoverX Corporation (KINOMEscan screening service)", "assay": "KINOMEscan", "details": "1 μM of compound 4; read-out: POC"}, "[30]": {"target": "T7, RIPK1 (Homo sapiens, UniProt Q13546)", "T7 construct": "purchased Eurofins DiscoverX Corporation (KINOMEscan screening service)", "assay": "KINOMEscan", "details": "1 μM of compound 4; read-out: POC"}, "[31]": {"target": "T8, RPS6KA5(Kin.Dom.2-C-terminal) (Homo sapiens, UniProt O75582)", "T8 construct": "RPS6KA5(Kin.Dom.2-C-terminal); purchased Eurofins DiscoverX Corporation (KINOMEscan screening service)", "assay": "KINOMEscan", "details": "1 μM of compound 4; read-out: POC"}, "[32]": {"target": "T9, SRPK1 (Homo sapiens, UniProt Q96SB4)", "T9 construct": "purchased Eurofins DiscoverX (KINOMEscan service)", "assay": "KINOMEscan", "details": "1 μM of compound 4; read-out: POC"}, "[33]": {"target": "T10, STK16 (Homo sapiens, UniProt O75716)", "T10 construct": "purchased Eurofins DiscoverX (KINOMEscan service)", "T10 sequence (O75716 whole entry)": "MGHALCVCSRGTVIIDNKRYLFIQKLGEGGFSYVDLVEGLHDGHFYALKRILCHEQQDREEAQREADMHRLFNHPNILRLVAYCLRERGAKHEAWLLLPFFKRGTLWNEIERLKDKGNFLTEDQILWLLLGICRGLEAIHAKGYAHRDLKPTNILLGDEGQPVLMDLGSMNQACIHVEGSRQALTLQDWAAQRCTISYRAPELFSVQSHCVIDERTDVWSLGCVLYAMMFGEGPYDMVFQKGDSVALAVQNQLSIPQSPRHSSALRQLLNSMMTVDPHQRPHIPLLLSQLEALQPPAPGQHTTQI", "assay": "KINOMEscan", "details": "1 μM of compound 4; read-out: POC"}, "[34]": {"target": "T11, TAOK2 (Homo sapiens, UniProt Q9UL54)", "T11 construct": "purchased Eurofins DiscoverX Corporation", "assay": "KINOMEscan", "details": "1 μM of compound 4; read-out: POC"}, "[35]": {"target": "T12, TIE1 (Homo sapiens, UniProt P35590)", "T12 construct": "purchased Eurofins DiscoverX Corporation", "assay": "KINOMEscan", "details": "1 μM of compound 4; read-out: POC"}, "[36]": {"target": "T13, TNK1 (Homo sapiens, UniProt Q13470)", "T13 construct": "purchased Eurofins DiscoverX Corporation", "assay": "KINOMEscan", "details": "1 μM of compound 4; read-out: POC"}, "[37]": {"target": "T14, TYRO3 (Homo sapiens, UniProt Q06418)", "T14 construct": "purchased Eurofins DiscoverX", "assay": "KINOMEscan", "details": "1 μM of compound 4; read-out: POC"}, "[38]": {"target": "T15, WNK2 (Homo sapiens, UniProt Q9Y3S1)", "T15 construct": "purchased Eurofins DiscoverX", "T15 sequence (Q9Y3S1 whole entry)": "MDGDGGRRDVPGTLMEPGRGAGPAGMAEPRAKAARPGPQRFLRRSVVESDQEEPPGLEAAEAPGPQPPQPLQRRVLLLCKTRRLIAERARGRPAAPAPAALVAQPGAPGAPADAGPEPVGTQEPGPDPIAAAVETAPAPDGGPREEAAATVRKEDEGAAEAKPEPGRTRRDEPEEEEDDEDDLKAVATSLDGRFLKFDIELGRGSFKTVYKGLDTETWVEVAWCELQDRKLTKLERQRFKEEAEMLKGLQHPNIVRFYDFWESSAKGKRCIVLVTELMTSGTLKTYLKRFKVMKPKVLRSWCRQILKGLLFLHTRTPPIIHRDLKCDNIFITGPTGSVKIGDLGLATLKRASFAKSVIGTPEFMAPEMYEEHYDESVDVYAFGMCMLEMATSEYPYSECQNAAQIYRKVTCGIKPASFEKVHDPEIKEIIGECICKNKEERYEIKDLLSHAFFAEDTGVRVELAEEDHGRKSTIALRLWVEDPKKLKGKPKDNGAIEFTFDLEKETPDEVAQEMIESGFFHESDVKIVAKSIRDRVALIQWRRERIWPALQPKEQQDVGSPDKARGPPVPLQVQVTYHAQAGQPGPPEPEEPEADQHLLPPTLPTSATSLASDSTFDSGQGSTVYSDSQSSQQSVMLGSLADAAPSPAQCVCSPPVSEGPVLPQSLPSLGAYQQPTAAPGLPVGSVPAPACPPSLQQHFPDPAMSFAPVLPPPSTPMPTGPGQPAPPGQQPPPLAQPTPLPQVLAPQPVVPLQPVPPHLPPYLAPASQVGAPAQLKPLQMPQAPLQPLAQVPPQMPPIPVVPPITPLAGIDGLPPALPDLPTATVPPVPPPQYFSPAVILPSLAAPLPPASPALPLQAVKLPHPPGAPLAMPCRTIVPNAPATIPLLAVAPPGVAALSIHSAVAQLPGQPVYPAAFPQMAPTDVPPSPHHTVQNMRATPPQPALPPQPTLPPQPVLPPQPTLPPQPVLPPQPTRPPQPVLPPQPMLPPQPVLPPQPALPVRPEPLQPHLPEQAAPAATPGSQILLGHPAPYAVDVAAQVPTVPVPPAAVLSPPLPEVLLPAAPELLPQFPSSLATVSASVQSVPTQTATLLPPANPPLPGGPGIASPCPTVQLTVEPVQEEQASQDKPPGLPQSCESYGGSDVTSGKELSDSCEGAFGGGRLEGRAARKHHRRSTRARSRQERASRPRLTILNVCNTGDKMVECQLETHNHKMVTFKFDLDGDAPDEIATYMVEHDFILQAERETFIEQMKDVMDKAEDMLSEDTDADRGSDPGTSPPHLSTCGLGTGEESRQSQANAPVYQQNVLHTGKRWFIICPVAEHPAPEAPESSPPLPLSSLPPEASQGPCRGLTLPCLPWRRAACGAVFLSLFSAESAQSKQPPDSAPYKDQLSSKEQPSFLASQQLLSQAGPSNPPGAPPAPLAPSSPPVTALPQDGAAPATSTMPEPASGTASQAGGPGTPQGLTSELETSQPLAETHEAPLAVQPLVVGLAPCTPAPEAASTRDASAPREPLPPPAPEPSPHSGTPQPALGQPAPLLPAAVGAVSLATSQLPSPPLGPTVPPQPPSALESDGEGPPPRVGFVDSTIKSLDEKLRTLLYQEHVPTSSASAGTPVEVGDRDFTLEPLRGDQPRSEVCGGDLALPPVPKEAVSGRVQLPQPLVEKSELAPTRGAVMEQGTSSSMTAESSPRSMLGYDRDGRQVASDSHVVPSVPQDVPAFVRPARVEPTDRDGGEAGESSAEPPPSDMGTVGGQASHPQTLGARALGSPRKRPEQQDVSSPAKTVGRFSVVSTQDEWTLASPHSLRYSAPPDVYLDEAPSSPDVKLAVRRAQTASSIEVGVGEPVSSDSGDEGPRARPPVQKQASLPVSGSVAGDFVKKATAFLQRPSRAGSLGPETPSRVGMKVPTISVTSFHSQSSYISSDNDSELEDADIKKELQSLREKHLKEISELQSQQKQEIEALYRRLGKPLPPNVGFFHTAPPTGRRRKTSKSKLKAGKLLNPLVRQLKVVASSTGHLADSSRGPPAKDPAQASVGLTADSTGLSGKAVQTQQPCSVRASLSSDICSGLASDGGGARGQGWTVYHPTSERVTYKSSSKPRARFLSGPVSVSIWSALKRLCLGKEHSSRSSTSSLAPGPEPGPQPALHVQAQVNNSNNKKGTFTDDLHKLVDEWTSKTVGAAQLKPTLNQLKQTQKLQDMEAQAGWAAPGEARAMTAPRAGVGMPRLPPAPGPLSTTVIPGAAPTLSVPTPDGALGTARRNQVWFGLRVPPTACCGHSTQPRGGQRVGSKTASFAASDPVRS", "assay": "KINOMEscan", "details": "1 μM of compound 4; read-out: POC"}, "[39]": {"system": "468 kinases", "assay": "KINOMEscan selectivity screening", "details": "1 μM"}},
  "data": [
    {"smiles": "C=CC(=O)Nc1ccc(OC)c(Nc2cc(-c3[nH]c(CC)nc3-c3cccc(NC(=O)c4cccc5c4NC(=O)c4ccccc4N5)c3)ccn2)c1", "note": "[Compound 4, N-(3-(5-(2-((5-Acrylamido-2-methoxyphenyl)amino)pyridin-4-yl)-2-ethyl-1H-imidazol-4-yl)phenyl)-11-oxo-10,11-dihydro-5H-dibenzo[b,e][1,4]diazepine-9-carboxamide]", "values": [
      {"measurement": "remaining binding at 1 µM", "setting": "[1]", "value": 67, "unit": "%"},
      {"measurement": "remaining binding at 1 µM", "setting": "[2]", "value": 90, "unit": "%"},
      {"measurement": "remaining binding at 1 µM", "setting": "[3]", "value": 100, "unit": "%"},
      {"measurement": "remaining binding at 1 µM", "setting": "[4]", "value": 54, "unit": "%"},
      {"measurement": "remaining binding at 1 µM", "setting": "[5]", "value": 94, "unit": "%"},
      {"measurement": "remaining binding at 1 µM", "setting": "[6]", "value": 100, "unit": "%"},
      {"measurement": "remaining binding at 1 µM", "setting": "[7]", "value": 65, "unit": "%"},
      {"measurement": "remaining binding at 1 µM", "setting": "[8]", "value": 6.3, "unit": "%"},
      {"measurement": "remaining binding at 1 µM", "setting": "[9]", "value": 14, "unit": "%"},
      {"measurement": "remaining binding at 1 µM", "setting": "[10]", "value": 88, "unit": "%"},
      {"measurement": "remaining binding at 1 µM", "setting": "[11]", "value": 100, "unit": "%"},
      {"measurement": "remaining binding at 1 µM", "setting": "[12]", "value": 0, "unit": "%"},
      {"measurement": "remaining binding at 1 µM", "setting": "[13]", "value": 100, "unit": "%"},
      {"measurement": "remaining binding at 1 µM", "setting": "[14]", "value": 97, "unit": "%"},
      {"measurement": "remaining binding at 1 µM", "setting": "[15]", "value": 48, "unit": "%"},
      {"measurement": "remaining binding at 1 µM", "setting": "[16]", "value": 90, "unit": "%"},
      {"measurement": "remaining binding at 1 µM", "setting": "[17]", "value": 74, "unit": "%"},
      {"measurement": "remaining binding at 1 µM", "setting": "[18]", "value": 100, "unit": "%"},
      {"measurement": "remaining binding at 1 µM", "setting": "[19]", "value": 10, "unit": "%"},
      {"measurement": "remaining binding at 1 µM", "setting": "[20]", "value": 100, "unit": "%"},
      {"measurement": "remaining binding at 1 µM", "setting": "[21]", "value": 84, "unit": "%"},
      {"measurement": "remaining binding at 1 µM", "setting": "[22]", "value": 98, "unit": "%"},
      {"measurement": "remaining binding at 1 µM", "setting": "[23]", "value": 100, "unit": "%"},
      {"measurement": "remaining binding at 1 µM", "setting": "[24]", "value": 69, "unit": "%"},
      {"measurement": "remaining binding at 1 µM", "setting": "[25]", "value": 100, "unit": "%"},
      {"measurement": "remaining binding at 1 µM", "setting": "[26]", "value": 100, "unit": "%"},
      {"measurement": "remaining binding at 1 µM", "setting": "[27]", "value": 62, "unit": "%"},
      {"measurement": "remaining binding at 1 µM", "setting": "[28]", "value": 99, "unit": "%"},
      {"measurement": "remaining binding at 1 µM", "setting": "[29]", "value": 99, "unit": "%"},
      {"measurement": "remaining binding at 1 µM", "setting": "[30]", "value": 100, "unit": "%"},
      {"measurement": "remaining binding at 1 µM", "setting": "[31]", "value": 100, "unit": "%"},
      {"measurement": "remaining binding at 1 µM", "setting": "[32]", "value": 100, "unit": "%"},
      {"measurement": "remaining binding at 1 µM", "setting": "[33]", "value": 100, "unit": "%"},
      {"measurement": "remaining binding at 1 µM", "setting": "[34]", "value": 100, "unit": "%"},
      {"measurement": "remaining binding at 1 µM", "setting": "[35]", "value": 100, "unit": "%"},
      {"measurement": "remaining binding at 1 µM", "setting": "[36]", "value": 22, "unit": "%"},
      {"measurement": "remaining binding at 1 µM", "setting": "[37]", "value": 32, "unit": "%"},
      {"measurement": "remaining binding at 1 µM", "setting": "[38]", "value": 62, "unit": "%"},
      {"measurement": "S (35) kinome selectivity", "setting": "[39]", "value": 0.084}
    ]}
  ]
}
